Our source for the IC50 values is patent publication US7541367B2, “3-benzoimidazolyl-pyrazolopyridines useful in treating kinase disorders” (Janssen Pharmaceutica, N.V., priority 2005, dated 2009).

Some results are limits rather than exact numbers.

One assay deals with T1, VEGF-R2 (Rattus norvegicus, UniProt O08775).
T1 construct: polyhistidine (N)
Nature of the assay: VEGF-R2 kinase screening assay (33P-ATP FlashPlate).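 Further: Read-out is ³³P incorporation from ³³P-γ-ATP into biotinylated peptide substrate captured on streptavidin FlashPlate, counted by scintillation, 1% DMSO final, inhibition scaled between per-plate maximum and minimum signals.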 Conditions: rat VEGF-R2 kinase domain; 10 μM ATP; 1 hr at 30° C. The format is biochemical.

The test system of a further assay is HCT-116 colon carcinoma. Nature of the assay: Cell Proliferation Inhibition Assay (14C-thymidine incorporation), HCT-116.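 Further: proliferation measured as methyl 14C-thymidine uptake into new DNA, counted in 96-well scintillating microplates, compared with DMSO-only control wells.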 The format is cell-based. The note with it: Homo sapiens, HCT-116, HCT-116 cells.
The target in another assay is T2, CDK1 (Homo sapiens, UniProt P06493).
T2 construct: purchased New England Biolabs, Beverly, Mass; 6020; host or cells: insect cells
Nature of the assay: CDK-1 kinase screening assay (33P-ATP FlashPlate). The format is biochemical. The note with it: human CDK1 with cyclin B; 10 μM ATP; 1 hr at 30° C.

In another assay the target is T3, HER2 (Homo sapiens, UniProt P04626).
T3 construct: GST (Glutathione-S-Transferase) (N); HIS6 (N); thrombin cleavage site (N); purchased Proqinase, Freiburg, Germany
Nature of the assay: HER2 kinase screening assay (33P-ATP FlashPlate).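 Further: Biotin-poly(GT) 4:1 peptide captured on streptavidin FlashPlate, 33P transfer from γ-ATP read by scintillation counting, lower incorporation means inhibition, 1% DMSO final, 100 µL reaction.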 The class given is biochemical. The note with it: GST-HIS6 HER-2 aa 679 to 1255; 10 μM ATP; 1 hr at 30° C.

The next assay concerns the target T4, RET (Homo sapiens, UniProt P07949).
T4 construct: polyhistidine (N)
T4 sequence (P07949 658-1114 limits assumed): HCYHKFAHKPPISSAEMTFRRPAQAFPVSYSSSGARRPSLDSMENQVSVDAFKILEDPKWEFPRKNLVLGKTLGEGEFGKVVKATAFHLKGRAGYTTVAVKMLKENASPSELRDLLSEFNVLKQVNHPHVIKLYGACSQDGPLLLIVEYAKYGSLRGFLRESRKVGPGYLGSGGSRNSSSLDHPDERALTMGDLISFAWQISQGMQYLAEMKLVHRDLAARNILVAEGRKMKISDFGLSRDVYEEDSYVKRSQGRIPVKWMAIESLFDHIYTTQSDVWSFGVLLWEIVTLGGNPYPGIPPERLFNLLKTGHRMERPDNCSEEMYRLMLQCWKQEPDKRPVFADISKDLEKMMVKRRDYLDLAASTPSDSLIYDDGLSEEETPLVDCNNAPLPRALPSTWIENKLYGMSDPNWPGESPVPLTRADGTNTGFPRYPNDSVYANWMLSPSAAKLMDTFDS
The assay can be described thus: RET kinase screening assay (33P-ATP FlashPlate).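 Further: biotinylated peptide substrate captured on streptavidin FlashPlate, 33P phosphate transfer read by scintillation counting, 1% DMSO, lower incorporation means inhibition, percent relative to per-plate maximum and minimum signals.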 The format is biochemical. Conditions: human RET kinase domain; 10 μM ATP; 1 hr at 30° C.

Another assay has as its system A375 malignant melanoma. The assay can be described thus: Cell Proliferation Inhibition Assay (14C-thymidine incorporation), A375.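 Further: proliferation measured by radiolabelled thymidine uptake into new DNA, counted in scintillating 96-well plates, compound-treated wells compared with DMSO-only control wells.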 The class given is cell-based. The note with it: Homo sapiens, A-375, A375 cells.
Assay [1] deals with HeLa cervical adenocarcinoma. Nature of the assay: Cell Proliferation Inhibition Assay (14C-thymidine incorporation), HeLa.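 Further: test compound in DMSO added to cells seeded in scintillating 96-well plates, DMSO-only wells as control, uptake of methyl 14C-thymidine into new DNA counted.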 The format is cell-based. The note with it: Homo sapiens, HeLa, HeLa cells.
The target of a further assay is T5, Aurora-A (Mus musculus, UniProt P97477).
T5 construct: polyhistidine (N)
T5 sequence (P97477 1-395): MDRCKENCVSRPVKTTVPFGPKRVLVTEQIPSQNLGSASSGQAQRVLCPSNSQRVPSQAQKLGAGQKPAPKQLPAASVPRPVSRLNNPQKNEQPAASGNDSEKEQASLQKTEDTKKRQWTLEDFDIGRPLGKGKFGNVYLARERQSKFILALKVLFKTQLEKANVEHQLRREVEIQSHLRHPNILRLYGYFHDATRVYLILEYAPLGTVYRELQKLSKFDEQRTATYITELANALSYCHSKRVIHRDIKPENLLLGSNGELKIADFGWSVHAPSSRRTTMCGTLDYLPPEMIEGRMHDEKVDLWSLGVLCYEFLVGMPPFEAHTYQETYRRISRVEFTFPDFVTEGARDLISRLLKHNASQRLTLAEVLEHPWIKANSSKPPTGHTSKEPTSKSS
The assay can be described thus: Aurora-A kinase screening assay (33P-ATP FlashPlate).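 Further: His-tagged mouse Aurora-A phosphorylating a biotinylated peptide captured on streptavidin plates, read as 33P uptake by scintillation counting, 1% DMSO, inhibition scaled between per-plate maximum and minimum signals.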 The class given is biochemical. Conditions: 10 μM ATP, 1 hr at 30° C.

T3 sequence (P04626 679-1255): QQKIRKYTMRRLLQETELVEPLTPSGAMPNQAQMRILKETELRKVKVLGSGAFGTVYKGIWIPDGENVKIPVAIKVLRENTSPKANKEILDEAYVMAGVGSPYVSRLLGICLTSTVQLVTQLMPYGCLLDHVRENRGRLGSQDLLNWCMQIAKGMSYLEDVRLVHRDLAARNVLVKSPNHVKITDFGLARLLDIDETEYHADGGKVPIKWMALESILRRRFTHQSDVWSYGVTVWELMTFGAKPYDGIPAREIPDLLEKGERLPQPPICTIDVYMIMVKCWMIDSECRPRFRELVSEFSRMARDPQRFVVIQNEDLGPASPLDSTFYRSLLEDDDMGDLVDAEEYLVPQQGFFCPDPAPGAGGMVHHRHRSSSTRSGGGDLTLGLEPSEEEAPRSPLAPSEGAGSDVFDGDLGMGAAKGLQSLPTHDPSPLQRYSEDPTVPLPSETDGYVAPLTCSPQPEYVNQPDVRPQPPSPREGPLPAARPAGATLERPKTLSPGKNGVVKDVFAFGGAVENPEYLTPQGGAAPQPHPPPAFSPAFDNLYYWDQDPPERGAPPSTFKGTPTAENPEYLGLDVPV
T2 sequence (P06493 whole entry): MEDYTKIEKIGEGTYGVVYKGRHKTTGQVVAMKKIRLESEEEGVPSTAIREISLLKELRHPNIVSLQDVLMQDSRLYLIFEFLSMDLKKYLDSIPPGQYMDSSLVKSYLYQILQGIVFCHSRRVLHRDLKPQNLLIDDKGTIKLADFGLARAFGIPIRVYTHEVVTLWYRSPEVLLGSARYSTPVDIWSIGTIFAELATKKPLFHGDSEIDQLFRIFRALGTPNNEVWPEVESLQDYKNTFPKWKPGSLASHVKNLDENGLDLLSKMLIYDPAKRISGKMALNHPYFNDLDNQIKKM
T2 sequence (P14635 whole entry partner): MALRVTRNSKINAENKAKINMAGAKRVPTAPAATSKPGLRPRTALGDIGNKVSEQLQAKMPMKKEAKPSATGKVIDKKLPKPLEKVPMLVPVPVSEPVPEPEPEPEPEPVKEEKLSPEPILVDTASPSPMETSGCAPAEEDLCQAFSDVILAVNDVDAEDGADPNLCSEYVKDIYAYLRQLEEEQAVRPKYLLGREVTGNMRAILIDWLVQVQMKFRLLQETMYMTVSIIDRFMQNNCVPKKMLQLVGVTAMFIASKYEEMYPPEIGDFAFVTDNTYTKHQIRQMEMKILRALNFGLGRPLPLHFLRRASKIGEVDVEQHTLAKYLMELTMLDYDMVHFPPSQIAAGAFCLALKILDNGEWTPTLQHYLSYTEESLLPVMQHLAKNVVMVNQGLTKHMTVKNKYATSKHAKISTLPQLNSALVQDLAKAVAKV
T1 sequence (O08775 786-1343): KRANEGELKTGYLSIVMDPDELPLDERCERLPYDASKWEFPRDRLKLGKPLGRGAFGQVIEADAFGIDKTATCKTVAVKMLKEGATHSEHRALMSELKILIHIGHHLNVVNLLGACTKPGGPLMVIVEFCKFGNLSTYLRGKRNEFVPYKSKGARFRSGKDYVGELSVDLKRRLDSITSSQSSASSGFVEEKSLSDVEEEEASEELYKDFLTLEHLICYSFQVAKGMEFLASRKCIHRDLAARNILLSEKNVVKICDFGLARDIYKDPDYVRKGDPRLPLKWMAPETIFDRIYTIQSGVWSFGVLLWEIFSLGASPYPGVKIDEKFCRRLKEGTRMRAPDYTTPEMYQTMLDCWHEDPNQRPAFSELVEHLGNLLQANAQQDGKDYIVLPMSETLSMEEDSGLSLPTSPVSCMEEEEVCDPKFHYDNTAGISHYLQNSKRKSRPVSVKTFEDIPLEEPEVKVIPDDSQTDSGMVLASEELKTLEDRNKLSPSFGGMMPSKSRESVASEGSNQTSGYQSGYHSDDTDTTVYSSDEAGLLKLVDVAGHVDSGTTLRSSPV

Regarding `CCCCNCc1cncc(-c2cnc3[nH]nc(-c4nc5c(COC)cccc5[nH]4)c3c2)c1` [Cpd 79, butyl-{5-[3-(4-methoxymethyl-1H-benzoimidazol-2-yl)-1H-pyrazolo[3,4-b]pyridin-5-yl]-pyridin-3-ylmethyl}-amine], the IC50 against VEGF-R2 was roughly 1000 nM; with HCT-116 colon carcinoma, 218 nM; against CDK1, 6.81 nM; on HER2 it was greater than 10 µM; on RET, greater than 10 µM; in the assay with A375 malignant melanoma, 343 nM. Besides, the IC50 in assay [1] is 417 nM; on Aurora-A, 2.45 µM.

On to `FC1(F)Oc2cc3nc(-c4n[nH]c5ncc(-c6cccnc6)cc45)[nH]c3cc2O1` [Cpd 98, 2,2-difluoro-6-(5-pyridin-3-yl-1H-pyrazolo[3,4-b]pyridin-3-yl)-5H-[1,3]dioxolo[4′,5′:4,5]benzo[1,2-d]imidazole], for which the IC50 against VEGF-R2 was greater than 100 nM; with HCT-116 colon carcinoma, 943 nM; on CDK1, 6.6 nM; against HER2, greater than 100 µM; against RET it was greater than 100 µM; in the assay with A375 malignant melanoma, 1080 nM. In addition, the values for the IC50 (in assay [1]; against Aurora-A) were 1610 nM and greater than 10 µM, respectively.

As to `O=C(O)c1cccc2[nH]c(-c3n[nH]c4ncc(-c5cncc6ccccc56)cc34)nc12` [Cpd 17, 2-(5-isoquinolin-4-yl-1H-pyrazolo[3,4-b]pyridin-3-yl)-1H-benzoimidazole-4-carboxylic acid], the IC50 is greater than 10000 nM against VEGF-R2; greater than 10000 nM in the assay with HCT-116 colon carcinoma; 541 nM at CDK1; greater than 100 µM against HER2; greater than 100 µM on RET; greater than 10000 nM in the assay with A375 malignant melanoma. For the same molecule, the half-maximal inhibitory concentration (IC50) in assay [1] was greater than 10000 nM; at Aurora-A, greater than 10 µM.

As for `c1cncc(-c2cnc3[nH]nc(-c4nc5cc6c(cc5[nH]4)OCO6)c3c2)c1` [Cpd 99, 6-(5-pyridin-3-yl-1H-pyrazolo[3,4-b]pyridin-3-yl)-5H-[1,3]dioxolo[4′,5′:4,5]benzo[1,2-d]imidazole], the IC50 at VEGF-R2 is roughly 1000 nM; in the assay on HCT-116 colon carcinoma, 271 nM; at CDK1, 3.3 nM; on HER2, greater than 100 µM; against RET, greater than 100 µM; in the assay with A375 malignant melanoma it was 489 nM. In addition, the values for the IC50 (in assay [1]; at Aurora-A) were 471 nM and roughly 10 µM, respectively.

Regarding `CCOC(=O)c1cncc(-c2cnc3[nH]nc(-c4nc5c(COC)cccc5[nH]4)c3c2)c1` [Cpd 70, 5-[3-(4-methoxymethyl-1H-benzoimidazol-2-yl)-1H-pyrazolo[3,4-b]pyridin-5-yl]-nicotinic acid ethyl ester], the IC50 is roughly 100000 nM against VEGF-R2; 55.4 nM with HCT-116 colon carcinoma; greater than 100000 nM on CDK1; greater than 100 µM against HER2; greater than 100 µM against RET; 38.7 nM with A375 malignant melanoma. Moreover, the IC50 is 1940 nM in assay [1] and roughly 100 µM against Aurora-A.

As for `COCc1cccc2[nH]c(-c3n[nH]c4ncc(-c5cncnc5)cc34)nc12` [Cpd 68, 3-(4-methoxymethyl-1H-benzoimidazol-2-yl)-5-pyrimidin-5-yl-1H-pyrazolo[3,4-b]pyridine], the IC50 against VEGF-R2 is 115 nM; with HCT-116 colon carcinoma, 325 nM; against CDK1, 1280 nM; at HER2, greater than 100 µM; against RET, greater than 100 µM; in the assay with A375 malignant melanoma it was 160 nM. Besides, the IC50 in assay [1] was 9910 nM; on Aurora-A, roughly 10 µM.

For the molecule `COCc1cccc2[nH]c(-c3n[nH]c4ncc(-c5cn(S(=O)(=O)c6ccccc6)c6ccccc56)cc34)nc12` [Cpd 38, 5-(1-benzenesulfonyl-1H-indol-3-yl)-3-(4-methoxymethyl-1H-benzoimidazol-2-yl)-1H-pyrazolo[3,4-b]pyridine], the IC50 at VEGF-R2 was greater than 1000 nM; with HCT-116 colon carcinoma, 39.4 nM; on CDK1, greater than 10000 nM; at HER2, greater than 100 µM; against RET, greater than 100 µM; in the assay with A375 malignant melanoma, 56.8 nM. Also, the IC50 in assay [1] was 1900 nM; against Aurora-A it was roughly 100 µM.

With `COCc1cccc2[nH]c(-c3n[nH]c4ncc(-c5cnccc5C)cc34)nc12` [Cpd 57, 3-(4-methoxymethyl-1H-benzoimidazol-2-yl)-5-(4-methyl-pyridin-3-yl)-1H-pyrazolo[3,4-b]pyridine], the IC50 was greater than 1000 nM at VEGF-R2; 68.7 nM in the assay on HCT-116 colon carcinoma; 66.3 nM at CDK1; greater than 100 µM against HER2; greater than 10 µM at RET; 119 nM in the assay on A375 malignant melanoma. Besides, the IC50 in assay [1] is 685 nM; against Aurora-A it was greater than 1 µM.

Consider `CC(C)NCc1cccc2[nH]c(-c3n[nH]c4ncc(-c5cncc6ccccc56)cc34)nc12` [Cpd 13, isopropyl-[2-(5-isoquinolin-4-yl-1H-pyrazolo[3,4-b]pyridin-3-yl)-1H-benzoimidazol-4-ylmethyl]-amine], for which the IC50 on VEGF-R2 is roughly 1000 nM; with HCT-116 colon carcinoma, 109 nM; on CDK1, 12.8 nM; against HER2, greater than 100 µM; against RET, greater than 100 µM; in the assay with A375 malignant melanoma it was 140 nM. For the same molecule, the values for the half-inhibitory concentration (IC50) (in assay [1]; against Aurora-A) were 134 nM and 3.62 µM, respectively.

Regarding `COCc1cccc2[nH]c(-c3n[nH]c4ncc(-c5cncc(CN(C)C)c5C)cc34)nc12` [Cpd 61, {5-[3-(4-methoxymethyl-1H-benzoimidazol-2-yl)-1H-pyrazolo[3,4-b]pyridin-5-yl]-4-methyl-pyridin-3-ylmethyl}-dimethyl-amine], the IC50 is 4110 nM at VEGF-R2; 99.2 nM in the assay with HCT-116 colon carcinoma; 283 nM on CDK1; greater than 10 µM against HER2; greater than 10 µM on RET; 219 nM in the assay on A375 malignant melanoma. Besides, the IC50 in assay [1] was determined as 1830 nM; at Aurora-A, 0.321 µM.

Turning to `COCc1cccc2[nH]c(-c3n[nH]c4ncc(-c5c[nH]c6ccccc56)cc34)nc12` [Cpd 39, 5-(1H-indol-3-yl)-3-(4-methoxymethyl-1H-benzoimidazol-2-yl)-1H-pyrazolo[3,4-b]pyridine], the IC50 was 266 nM on VEGF-R2; 26 nM in the assay on HCT-116 colon carcinoma; 1210 nM against CDK1; greater than 100 µM against HER2; greater than 100 µM against RET; 35.8 nM with A375 malignant melanoma. Further, the IC50 in assay [1] was 1680 nM; against Aurora-A, greater than 1 µM.

For the molecule `O=C(c1cccc2[nH]c(-c3n[nH]c4ncc(-c5cncc6ccccc56)cc34)nc12)N1CCOCC1` [Cpd 24, [2-(5-isoquinolin-4-yl-1H-pyrazolo[3,4-b]pyridin-3-yl)-1H-benzoimidazole-4-yl]-morpholin-4-yl-methanone], the IC50 was 4620 nM at VEGF-R2; 743 nM in the assay with HCT-116 colon carcinoma; 42 nM on CDK1; greater than 10 µM against HER2; roughly 100 µM at RET; 490 nM in the assay with A375 malignant melanoma. The IC50 in assay [1] amounted to 460 nM; at Aurora-A, 2.79 µM.

For the molecule `CN(C)CCNC(=O)c1cccc2[nH]c(-c3n[nH]c4ncc(-c5cncc6ccccc56)cc34)nc12` [Cpd 25, 2-(5-isoquinolin-4-yl-1H-pyrazolo[3,4-b]pyridin-3-yl)-1H-benzoimidazole-4-carboxylic acid (2-dimethylamino-ethyl)-amide], the concentration for half-maximal inhibition (IC50) is roughly 100000 nM on VEGF-R2; 1220 nM in the assay with HCT-116 colon carcinoma; 113 nM against CDK1; greater than 10 µM against HER2; greater than 100 µM on RET; 2020 nM with A375 malignant melanoma. In addition, the IC50 in assay [1] is 3800 nM; against Aurora-A, greater than 1 µM.

For the molecule `CCOCCOCc1cccc2[nH]c(-c3n[nH]c4ncc(-c5cncc6ccccc56)cc34)nc12` [Cpd 16, 4-{3-[4-(2-ethoxy-ethoxymethyl)-1H-benzoimidazol-2-yl]-1H-pyrazolo[3,4-b]pyridin-5-yl}-isoquinoline], the IC50 against VEGF-R2 was 60.7 nM; with HCT-116 colon carcinoma it was 237 nM; on CDK1, 65.5 nM; at HER2, greater than 100 µM; against RET, greater than 1 µM; in the assay on A375 malignant melanoma, 910 nM. For the same molecule, the IC50 in assay [1] is 632 nM; against Aurora-A, greater than 1 µM.
